Where “and” joins values, the source holds several entries; their conditions need not be identical. Equal values may be shown once. Read-outs that look alike come from different tables or passages of the source.

By Cmax is commonly meant the peak of the concentration-time curve. As usually defined, the IC50 is the concentration that inhibits the measured activity by half.

The conditions of data set [1]: cited from earlier work.
Data set [2] in a line: Toxicity in xenograft mouse studies. The conditions noted are these: xenograft mice, 50 mg/kg daily oral. In kind it is in vivo. The method, then:
All experiments were conducted after approval of The Ohio State University Institutional Animal Care and Use Committee. Mice were randomized and enrolled for daily oral gavage (Q.D.P.O) treatment of vehicle or 50 mg/kg ARQ 531. Mice were treated until reaching early removal criteria (ERC) defined as 20% weight loss, lethargy, hind limb paralysis, moribund, anorexia, dehydration, hunched posture, severe diarrhea, breathing difficulties, or any abnormal neurological symptoms.

Data set [3] relates to primary AML patient blasts. Kind of data set: MTS proliferation assay, primary AML blasts co-cultured with HS5-GFP stroma cells, 96 h. In kind it is cell-based, human. The conditions noted are these: HS5-GFP co-culture. The source says: For in vitro cytotoxicity experiments (Fig. 1b–d), repeated measures models were used to account for correlations among observations from the same experiment. The percentage of live cells was compared at each concentration with DMSO. […] Mixed effects models were used in experiments described in Additional file 1: Table S4 and Fig. 2c to account for correlations within a single patient. Outcome data were first log-transformed to stabilize variances and reduce skewness. For survival experiments (Figs. 5 and 6a), Kaplan-Meier curves were produced and group differences for Fig. 5 and assessed by the log-rank test and for Fig. 6a, p values have been adjusted for multiple comparisons using Holm’s procedure. p values from experiments with multiple endpoints were adjusted for multiple comparisons using either Holm’s procedure or Dunnett’s test (all comparisons against vehicle/DMSO).
MTS proliferation assay using a human stroma co-culture assay. […] FLT3 wild-type (WT) samples (red) and FLT3-ITD (black). Colony-Forming Unit-Granulocyte and Macrophage (CFU-GM) assay. […] Number of colonies were counted after 14 days (c)
(In general: Formazan colour is commonly taken as a measure of viable cells.)

For data set [4], the system named is MOLM13-Res. Briefly: MTT proliferation assay 72 h, MOLM13-Res (D835Y). In kind it is cell-based, human. The source says:
As one of the main resistance mechanisms to FLT3 inhibitors is the acquisition of TKD mutations, we tested the anti-proliferative activity of ARQ 531 in the MOLM-13 TKI-resistant (MOLM13-Res) cell line previously described in Zimmerman et al.. In this model, MOLM-13 cells have gained a D835Y mutation via continuous exposure to the FLT3 inhibitor tandutinib.

Data set [5] relates to MOLM-13 disseminated AML xenograft. Kind of data set: MOLM-13 disseminated xenograft, ARQ + Ven combination study (NCG mice). Format: in vivo. The conditions noted are these: 50 mg/kg ARQ 531 and/or 75 mg/kg venetoclax Q.D.P.O from 4 days post-engraftment until ERC; vehicle 25 days. On the procedure: All experiments were conducted after approval of The Ohio State University Institutional Animal Care and Use Committee. Mice were randomized and enrolled for daily oral gavage (Q.D.P.O) treatment of vehicle or 50 mg/kg ARQ 531. Mice were treated until reaching early removal criteria (ERC) defined as 20% weight loss, lethargy, hind limb paralysis, moribund, anorexia, dehydration, hunched posture, severe diarrhea, breathing difficulties, or any abnormal neurological symptoms. […]
Fig. 7 BCL2 inhibition improves ARQ 531 in vivo activity. a Kaplan–Meier survival curve in the MOLM-13 xenograft after mice were treated with vehicle (N = 9) or 50 mg/kg ARQ 531 Q.D.P.O (N = 9) or 75 mg/kg venetoclax Q.D.P.O (N = 10) or 50 mg/kg ARQ 531 and 75 mg/kg venetoclax combination Q.D.P.O (N = 10) at 4 days post engraftment until ERC. b Noninvasive serial whole body bioluminescence imaging of ventral view to monitor leukemia progression and regression post treatment. Mice were injected with 150 mg/kg Firefly D-Luciferin for evaluation of tumor burden as determined by whole body bioluminescence imaging using IVIS imager

The subject of data set [6] is Ba/F3 FLT3-ITD pMIT-Empty.
Method: CellTiter 96 Aqueous MTS reagent (Promega, Madison, WI) was added to cells followed by a 3-h incubation at 37 °C, 5% CO2. The absorbance was measured at 490 nm using DTX 880 plate reader and the half maximal inhibitory concentration (IC50) was calculated using GraphPad Prism 7 (GraphPad Software, La Jolla, CA) and SAS/STAT software (SAS v9.4 for Windows, SAS Institute, Inc., Cary, NC).
Data set [7] deals with T1, FLT3-WT (Homo sapiens, UniProt P36888).
T1 construct: measured using recombinant protein constructs of kinase domains (Reaction Biology); purchased Reaction Biology
Kind of data set: Biochemical assay of recombinant kinases, FLT3-WT. The settings on record: recombinant kinase domain, 10 μmol/L ATP. On the procedure: Biochemical inhibition of FLT3-WT and FLT3-ITD fusion was measured using recombinant protein constructs of kinase domains (Reaction Biology).

The test system of data set [8] is Ba/F3 FLT3-ITD. Kind of data set: MTT proliferation assay 72 h, Ba/F3 FLT3-ITD. Format: cell-based, murine. The conditions noted are these: Mus musculus, read-out: Estimated absolute µM IC50 and 95% CI.
Method: A total of 5000–30,000 cells from the lines above were treated in a 96-well plate for 72 h. CellTiter 96 Aqueous MTS reagent (Promega, Madison, WI) was added to cells followed by a 3-h incubation at 37 °C, 5% CO2. The absorbance was measured at 490 nm using DTX 880 plate reader and the half maximal inhibitory concentration (IC50) was calculated using GraphPad Prism 7 (GraphPad Software, La Jolla, CA) and SAS/STAT software (SAS v9.4 for Windows, SAS Institute, Inc., Cary, NC). For the MOLM-13 resistant and the Ba/F3-FLT3-ITD/TKD cell lines, cells were treated for 72 h and cell viability was evaluated using MTT assay (Roche Diagnostics. Mannheim. Germany) according to the manufacturer’s instructions.

T1 sequence (P36888 610-943 limits assumed): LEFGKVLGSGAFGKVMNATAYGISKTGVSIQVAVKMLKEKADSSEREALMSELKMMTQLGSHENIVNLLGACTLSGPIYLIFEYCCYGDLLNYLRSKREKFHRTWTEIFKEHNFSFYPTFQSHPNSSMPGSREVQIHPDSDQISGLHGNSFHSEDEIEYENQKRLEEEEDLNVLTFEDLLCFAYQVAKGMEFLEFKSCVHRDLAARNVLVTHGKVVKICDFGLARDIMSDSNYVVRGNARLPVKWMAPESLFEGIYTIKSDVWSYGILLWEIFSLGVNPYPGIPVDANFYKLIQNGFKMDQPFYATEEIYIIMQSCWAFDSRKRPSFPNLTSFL

`O=C(c1ccc(Oc2ccccc2)cc1Cl)c1c[nH]c2ncnc(N[C@@H]3CC[C@@H](CO)OC3)c12` [ARQ 531]: the Cmax in data set [1] (65 mg daily dose) was roughly 3000 nM. In addition, the concentration steady-state levels entry in data set [1] (ongoing phase 1 dose escalation trial in relapsed or refractory CLL) is on record as “exceeding 1 μM”. In addition, the toxicity entry in data set [2] is on record as “lack of toxicity”. For the same molecule, the “Estimated Ratio of proliferation versus vehicle (DMSO)” value in data set [3] (0.005 µM) is reported as 0.91; in data set [3] (0.01 µM) it was 0.95; in data set [3] (0.05 µM), 0.92; in data set [3] (0.1 µM), 0.9; in data set [3] (0.5 µM), 0.69; in data set [3] (1 µM) it was 0.58. Besides, the “Estimated Ratio of proliferation versus vehicle (DMSO)” value is listed as 0.34 in data set [3] (5 µM), 0.28 in data set [3] (10 µM) and 0.09 in data set [3] (50 µM). Besides, the concentration for half-maximal inhibition (IC50) is 3.42 µM in data set [4] (Homo sapiens, read-out: Estimated absolute µM IC50 and 95% CI, MTT, 72 h); 3.4 µM in data set [4] (read-out: Estimated absolute µM IC50 and 95% CI, MTT); 4.24 µM and 2.7 µM and 3.48 µM in data set [6]; 0.082 µM in data set [7]; 1.21 µM in data set [8]. The survival in data set [5] came to 27 days.

These data come from article PMC6988309, “Preclinical efficacy for a novel tyrosine kinase inhibitor, ArQule 531 against acute myeloid leukemia” (Journal of Hematology & Oncology, 2020).
